Source: article PMC3627040, “Methadone but not Morphine Inhibits Lubiprostone-Stimulated Cl^− Currents in T84 Intestinal Cells and Recombinant Human ClC-2, but not CFTR Cl^− Currents” (Cell Biochemistry and Biophysics, 2012)
pEC50: −log10 of the molar value.

Target: T1, human ClC-2 (hClC-2) Cl^− channel (Homo sapiens, UniProt P51788)
T1 construct: gene CLCN2; recombinant hClC-2 stably expressed in HEK293EBNA cells
T1 sequence (P51788 2-898): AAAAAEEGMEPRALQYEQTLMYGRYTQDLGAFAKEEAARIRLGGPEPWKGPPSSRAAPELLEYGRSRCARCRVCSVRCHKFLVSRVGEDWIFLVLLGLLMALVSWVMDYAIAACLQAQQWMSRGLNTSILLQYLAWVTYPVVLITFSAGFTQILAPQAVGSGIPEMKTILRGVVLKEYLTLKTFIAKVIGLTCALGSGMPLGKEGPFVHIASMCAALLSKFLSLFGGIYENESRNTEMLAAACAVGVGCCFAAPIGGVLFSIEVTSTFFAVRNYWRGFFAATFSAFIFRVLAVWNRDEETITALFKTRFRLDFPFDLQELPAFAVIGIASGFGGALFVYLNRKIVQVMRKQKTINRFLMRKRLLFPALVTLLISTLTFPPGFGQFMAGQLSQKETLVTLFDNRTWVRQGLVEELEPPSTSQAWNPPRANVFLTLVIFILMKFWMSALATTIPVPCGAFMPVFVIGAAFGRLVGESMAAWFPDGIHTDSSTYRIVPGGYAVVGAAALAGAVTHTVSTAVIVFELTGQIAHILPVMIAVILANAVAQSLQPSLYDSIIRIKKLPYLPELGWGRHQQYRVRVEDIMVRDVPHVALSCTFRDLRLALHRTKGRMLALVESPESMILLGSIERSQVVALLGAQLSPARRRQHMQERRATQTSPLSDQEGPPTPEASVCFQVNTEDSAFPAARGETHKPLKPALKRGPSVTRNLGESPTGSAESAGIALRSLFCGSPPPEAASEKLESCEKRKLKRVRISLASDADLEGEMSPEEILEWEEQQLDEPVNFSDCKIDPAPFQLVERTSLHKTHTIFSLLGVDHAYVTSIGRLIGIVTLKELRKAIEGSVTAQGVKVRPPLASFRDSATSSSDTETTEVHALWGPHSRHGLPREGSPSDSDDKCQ
Test: whole cell patch clamp, activation of Cl- currents at -140 mV
Type: cell-based

**Q.** `CCCCC(F)(F)[C@@]1(O)CC[C@H]2[C@@H](CC(=O)[C@@H]2CCCCCCC(=O)O)O1` [Lubiprostone] was tested. Which pEC50 did it give?
**A.** 7.55
